In patent US20050197350A1, “Novel quinoline, tetrahydroquinazoline, and pyrimidine derivatives and methods of treatment related to the use thereof” (TAISHO PHARMACEUTICAL CO., LTD., priority 2003, published 2005):

These molecules were tested on MCH receptors (assay: MCH receptor activity class (method not given)). Settings: not given.

Row | class | Compound
1 | 1 | Cc1ccc(C(=O)N[C@H]2CC[C@@H](Nc3cc(C)c4ccccc4n3)CC2)cc1 [Example 2544, 4-methyl-N-{cis-4-[(4-methylquinolin-2-yl)amino]cyclohexyl}benzamide]

Same assay, conditions: MCH receptor activity class 1-3 (percent of control at 10^-7 M or IC50)

Row | Compound | class
2 | Cc1cccc(C(C)(C)C)c1NC(=O)NC[C@H]1CC[C@@H](Nc2nccc(N(C)C)n2)CC1 [compound 2429, N-(2-tert-butyl-6-methylphenyl)-N′-[(cis-4-{[4-(dimethylamino)pyrimidin-2-yl]amino}cyclohexyl)methyl]urea] | 1 (Class 1: The value of percent of control at 10^−7 M was less than 40% or the value of IC50 was less than 50 nM.)
3 | CN(C)c1cc(N[C@H]2CC[C@@H](CNC(=O)Nc3ccc(F)c(Cl)c3)CC2)nc2ccccc12 [compound 2404] | 3 (Class 3 The value of percent of control at 10^−7 M was more than 60% or the value of IC50 was more than 200 nM.)
4 | Cc1cccc(Cl)c1NC(=O)NC[C@H]1CC[C@@H](Nc2nc3c(c(N(C)C)n2)CCCC3)CC1 [compound 2466, N-(2-chloro-6-methylphenyl)-N′-[(cis-4-{[4-(dimethylamino)-5,6,7,8-tetrahydroquinazolin-2-yl]amino}cyclohexyl)methyl]urea] | 1 (Class 1: The value of percent of control at 10^−7 M was less than 40% or the value of IC50 was less than 50 nM.)

Same assay, conditions: MCH receptor; class by percent of control at 10^-7 M or IC50

Row | Compound | class
5 | CN(C)c1cc(N[C@H]2CC[C@@H](NC(=O)c3cccc(Cl)c3F)CC2)nc2ccccc12 [compound 59] | 3 (Class 3 The value of percent of control at 10^−7 M was more than 60% or the value of IC50 was more than 200 nM.)
6 | CN(C)c1nc(N[C@H]2CC[C@@H](NC(=S)NCC3CCCCC3)CC2)nc2c1CCCC2 [compound 2027] | 3 (Class 3 The value of percent of control at 10^−7 M was more than 60% or the value of IC50 was more than 200 nM.)
7 | CCC[C@H]1CC[C@H](c2ccc(NC(=S)N[C@H]3CC[C@@H](Nc4nc5c(c(N(C)C)n4)CCCC5)CC3)cc2)CC1 [compound 1943] | 3 (Class 3 The value of percent of control at 10^−7 M was more than 60% or the value of IC50 was more than 200 nM.)
8 | CN(C)c1nc(N[C@H]2CC[C@@H](NC(=S)Nc3cc(Cl)ccc3F)CC2)nc2c1CCCC2 [compound 2066] | 3 (Class 3 The value of percent of control at 10^−7 M was more than 60% or the value of IC50 was more than 200 nM.)
9 | CN(C)c1nc(N[C@H]2CC[C@@H](NC(=O)NC3CCCC3)CC2)nc2c1CCCC2 [compound 1907] | 3 (Class 3 The value of percent of control at 10^−7 M was more than 60% or the value of IC50 was more than 200 nM.)
10 | CN(C)c1nc(N[C@H]2CC[C@@H](NC(=S)Nc3ccc(-c4nc5c6ccccc6c6ccccc6c5o4)cc3)CC2)nc2c1CCCC2 [compound 2075] | 3 (Class 3 The value of percent of control at 10^−7 M was more than 60% or the value of IC50 was more than 200 nM.)

Same assay, conditions: class 1-3 by percent of control at 10^-7 M or IC50

Row | Compound | class
11 | Cc1ccc(Oc2ncccc2C(=O)N[C@H]2CC[C@@H](Nc3nc4c(c(N(C)C)n3)CCCC4)CC2)cc1 [compound 573] | 1 (Class 1: The value of percent of control at 10^−7 M was less than 40% or the value of IC50 was less than 50 nM.)

Same assay, conditions: class by percent of control at 10^-7 M or IC50

Row | Compound | class
12 | CN(C)c1cc(N[C@H]2CC[C@@H](CNCCCCCCCCc3ccccc3)CC2)nc2ccccc12 [compound 1467] | 3 (Class 3 The value of percent of control at 10^−7 M was more than 60% or the value of IC50 was more than 200 nM.)
13 | COc1ccc(CN[C@H]2CC[C@@H](Nc3nccc(N(C)C)n3)CC2)c2ccccc12 [compound 1209] | 3 (Class 3 The value of percent of control at 10^−7 M was more than 60% or the value of IC50 was more than 200 nM.)
14 | CN(C)c1nc(N[C@H]2CC[C@@H](NC(=O)Nc3c(F)cccc3F)CC2)nc2c1CCCC2 [compound 1820] | 3 (Class 3 The value of percent of control at 10^−7 M was more than 60% or the value of IC50 was more than 200 nM.)
15 | CSc1ccc(CN[C@H]2CC[C@@H](Nc3nc4c(c(N(C)C)n3)CCCC4)CC2)cc1 [compound 1360] | 3 (Class 3 The value of percent of control at 10^−7 M was more than 60% or the value of IC50 was more than 200 nM.)
16 | CN(C)c1ccnc(N[C@H]2CC[C@@H](NC(=O)Nc3ccc(Br)cc3Br)CC2)n1 [compound 2229] | 3 (Class 3 The value of percent of control at 10^−7 M was more than 60% or the value of IC50 was more than 200 nM.)
17 | CN(C)c1cc(N[C@H]2CC[C@@H](NC(=S)Nc3ccc(I)cc3)CC2)nc2ccccc12 [compound 2272] | 3 (Class 3 The value of percent of control at 10^−7 M was more than 60% or the value of IC50 was more than 200 nM.)
18 | CN(C)c1ccnc(N[C@H]2CC[C@@H](NC(=O)c3cccc([N+](=O)[O-])c3)CC2)n1 [compound 262, N-(cis-4-{[4-(dimethylamino)pyrimidin-2-yl]amino}cyclohexyl)-3-nitrobenzamide] | 1 (Class 1: The value of percent of control at 10^−7 M was less than 40% or the value of IC50 was less than 50 nM.)
19 | COc1cccc(CNC[C@H]2CC[C@@H](Nc3nccc(N(C)C)n3)CC2)c1O [compound 1317] | 3 (Class 3 The value of percent of control at 10^−7 M was more than 60% or the value of IC50 was more than 200 nM.)
20 | CN(C)c1nc(N[C@H]2CC[C@@H](NC(=O)c3cc(Br)c(Br)s3)CC2)nc2c1CCCC2 [compound 977, 4,5-dibromo-N-(cis-4-{[4-(dimethylamino)-5,6,7,8-tetrahydroquinazolin-2-yl]amino}cyclohexyl)thiophene-2-carboxamide] | 2 (Class 2: The value of percent of control at 10^−7 M was from 40% to 60% or the value of IC′50 was from 50 nM to 200 nM.)
21 | COc1cc(CNC[C@H]2CC[C@@H](Nc3nc4c(c(N(C)C)n3)CCCC4)CC2)cc(F)c1O [compound 1441] | 2 (Class 2: The value of percent of control at 10^−7 M was from 40% to 60% or the value of IC′50 was from 50 nM to 200 nM.)
22 | COc1cc(F)c(CNC[C@H]2CC[C@@H](Nc3nc4c(c(N(C)C)n3)CCCC4)CC2)cc1OC [compound 1442] | 3 (Class 3 The value of percent of control at 10^−7 M was more than 60% or the value of IC50 was more than 200 nM.)
23 | CCO[Si](CCCNC(=O)N[C@H]1CC[C@@H](Nc2nc3c(c(N(C)C)n2)CCCC3)CC1)(OCC)OCC [compound 1839] | 3 (Class 3 The value of percent of control at 10^−7 M was more than 60% or the value of IC50 was more than 200 nM.)
24 | COc1ccc2[nH]cc(CNC[C@H]3CC[C@@H](Nc4nccc(N(C)C)n4)CC3)c2c1 [compound 1248] | 2 (Class 2: The value of percent of control at 10^−7 M was from 40% to 60% or the value of IC′50 was from 50 nM to 200 nM.)
25 | CCCCNC(=O)N[C@H]1CC[C@@H](Nc2nccc(N(C)C)n2)CC1 [compound 2215] | 3 (Class 3 The value of percent of control at 10^−7 M was more than 60% or the value of IC50 was more than 200 nM.)
26 | CN(C)c1cc(N[C@H]2CC[C@@H](NC(=O)c3cc(Cl)cc(Cl)c3NC(=O)C#Cc3ccccc3)CC2)nc2ccccc12 [compound 719] | 3 (Class 3 The value of percent of control at 10^−7 M was more than 60% or the value of IC50 was more than 200 nM.)
27 | CN(C)c1ccnc(N[C@H]2CC[C@@H](NC(=O)/C=C/c3ccccc3)CC2)n1 [compound 244] | 3 (Class 3 The value of percent of control at 10^−7 M was more than 60% or the value of IC50 was more than 200 nM.)
28 | CN(C)c1ccnc(N[C@H]2CC[C@@H](NC(=O)c3ccc(F)cc3)CC2)n1 [compound 255, N-(cis-4-{[4-(dimethylamino)pyrimidin-2-yl]amino}cyclohexyl)-4-fluorobenzamide] | 3 (Class 3 The value of percent of control at 10^−7 M was more than 60% or the value of IC50 was more than 200 nM.)
29 | COc1cc([N+](=O)[O-])ccc1NC(=S)N[C@H]1CC[C@@H](Nc2nc3c(c(N(C)C)n2)CCCC3)CC1 [compound 1749] | 3 (Class 3 The value of percent of control at 10^−7 M was more than 60% or the value of IC50 was more than 200 nM.)

Same assay, conditions: class by percent of control at 10^−7 M or IC50

Row | Compound | class
30 | Cc1cnc(N[C@H]2CC[C@@H](NC(=O)N(C)c3ccc(Cl)cc3)CC2)nc1N(C)C [compound 3027, N-(4-chlorophenyl)-N′-(cis-4-{[4-(dimethylamino)-5-methylpyrimidin-2-yl]amino}cyclohexyl)-N-methylurea] | 1 (Class 1: The value of percent of control at 10^−7 M was less than 40% or the value of IC50 was less than 50 nM.)
31 | Cc1cnc(N[C@H]2CC[C@@H](C(=O)N[C@H]3C[C@@H]3c3ccccc3)CC2)nc1N(C)C [compound 2790, cis-4-{[4-(dimethylamino)-5-methylpyrimidin-2-yl]amino}-N-[(1S,2R)-2-phenylcyclopropyl]cyclohexanecarboxamide] | 1 (Class 1: The value of percent of control at 10^−7 M was less than 40% or the value of IC50 was less than 50 nM.)
32 | COc1ccccc1C(=O)N[C@H]1CC[C@@H](Nc2ncc(C)c(N(C)C)n2)CC1 [compound 2910] | 3 (Class 3 The value of percent of control at 10^−7 M was more than 60% or the value of IC50 was more than 200 nM.)
33 | Cc1nc(C(=O)N[C@H]2CC[C@@H](Nc3nc(C)c(C)c(N(C)C)n3)CC2)co1 [compound 2830, N-(cis-4-{[4-(dimethylamino)-5,6-dimethylpyrimidin-2-yl]amino}cyclohexyl)-2-methyl-1,3-oxazole-4-carboxamide] | 2 (Class 2: The value of percent of control at 10^−7 M was from 40% to 60% or the value of IC′50 was from 50 nM to 200 nM.)
34 | Cc1cnc(N[C@H]2CC[C@@H](NC(=O)c3cccnc3Oc3cccc(Br)c3)CC2)nc1N(C)C [compound 2894, 2-(3-bromophenoxy)-N-(cis-4-{[4-(dimethylamino)-5-methylpyrimidin-2-yl]amino}cyclohexyl)nicotinamide] | 1 (Class 1: The value of percent of control at 10^−7 M was less than 40% or the value of IC50 was less than 50 nM.)
35 | Cc1cc(N(C)C)nc(N[C@H]2CC[C@@H](NC(=O)Cc3cc(C(F)(F)F)cc(C(F)(F)F)c3)CC2)n1 [compound 2950, 2-[3,5-bis(trifluoromethyl)phenyl]-N-(cis-4-{[4-(dimethylamino)-6-methylpyrimidin-2-yl]amino}cyclohexyl)acetamide] | 2 (Class 2: The value of percent of control at 10^−7 M was from 40% to 60% or the value of IC′50 was from 50 nM to 200 nM.)
